From ChEMBL document CHEMBL4828735, “Discovery of N-((3S,4S)-4-(3,4-Difluorophenyl)piperidin-3-yl)-2-fluoro-4-(1-methyl-1H-pyrazol-5-yl)benzamide (Hu7691), a Potent and Selective Akt Inhibitor That Enables Decrease of Cutaneous Toxicity” (J Med Chem, 2021)
pIC50: −log10 of the molar value. The source made the active and inactive calls. The rule behind the calls is not given here.

Columns and labels:
[1] = Microsomal stability in dog liver microsomes assessed as intrinsic clearance at 50 uM preincubated for 5 mins with NADPH followed by compound addition and measured upto 60 mins by LC-MS/MS analysis; assay type: ADME, Canis lupus familiaris, Microsome; conditions: read-out: CLH
[2] = Toxicity in Sprague-Dawley rat assessed as effect on thymus at 25 to 75 mg/kg administered daily for 4 weeks by histopathological analysis; assay type: organism-based; conditions: in vivo, 672 h, dose 25-75 mg/kg
[3] = Antiproliferative activity against human HPDE6c7 cells assessed as inhibition of cell growth incubated for 72 hrs by SRB method; assay type: cell-based; conditions: HPDE6c7, 72 h
786-0 [4] = experiment: Antiproliferative activity against human 786-0 cells assessed as inhibition of cell growth incubated for 72 hrs by SRB method; assay type: functional, cell-based; conditions: 786-0, 72 h
[5] = Tmax in Beagle dog at 20 mg/kg, ig measured upto 96 hrs by LC-MS/MS analysis; assay type: ADME, organism-based, Canis lupus familiaris; conditions: in vivo, po
[6] = Drug metabolism in po dosed Sprague-Dawley rat bile assessed as M1 metabolite formation measured upto 24 hrs by UPLC-TOF-MS/MS analysis; assay type: ADME, organism-based; conditions: in vivo
[7] = Toxicity in Sprague-Dawley rat assessed as effect on thyroid at 25 to 75 mg/kg administered daily for 4 weeks by histopathological analysis; assay type: organism-based; conditions: in vivo, 672 h, dose 25-75 mg/kg
KHOS/NP [8] = experiment: Antitumor activity against human KHOS cells xenografted in dosed BALB/c nude mouse assessed as tumor growth inhibition at 25 mg/kg, ig administered once daily for 22 days; assay type: functional, organism-based; conditions: time 22.0 day
KHOS/NP [9] = experiment: Antiproliferative activity against human KHOS cells assessed as inhibition of cell growth incubated for 72 hrs by SRB assay; assay type: functional, cell-based
[10] = target: Serine/threonine-protein kinase Chk1 (Homo sapiens, UniProt O14757); experiment: Inhibition of CHK1 (unknown origin)
Serine/threonine-protein kinase Chk1, sequence (O14757 whole entry): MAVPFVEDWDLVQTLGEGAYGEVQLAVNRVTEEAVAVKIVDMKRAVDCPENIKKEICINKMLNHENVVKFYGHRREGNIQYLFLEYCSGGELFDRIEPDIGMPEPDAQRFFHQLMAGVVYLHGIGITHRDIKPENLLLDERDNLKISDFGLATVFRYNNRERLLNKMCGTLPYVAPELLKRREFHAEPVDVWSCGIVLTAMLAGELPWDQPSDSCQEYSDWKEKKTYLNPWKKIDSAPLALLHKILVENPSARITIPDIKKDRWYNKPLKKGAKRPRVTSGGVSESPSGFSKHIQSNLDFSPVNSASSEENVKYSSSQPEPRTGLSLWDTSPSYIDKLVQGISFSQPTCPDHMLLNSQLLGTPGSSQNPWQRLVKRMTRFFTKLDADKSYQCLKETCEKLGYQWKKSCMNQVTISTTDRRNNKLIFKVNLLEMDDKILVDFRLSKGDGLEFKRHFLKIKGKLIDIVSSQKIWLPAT

[11] = Toxicity in Sprague-Dawley rat assessed as effect on stomach at 25 to 75 mg/kg administered daily for 4 weeks by histopathological analysis; assay type: organism-based; conditions: in vivo, 672 h, dose 25-75 mg/kg
[12] = Toxicity in mouse assessed as weight loss at 150 mg/kg; assay type: organism-based; conditions: in vivo
[13] = Microsomal stability in mouse liver microsomes assessed as half life at 50 uM preincubated for 5 mins with NADPH followed by compound addition and measured upto 60 mins by LC-MS/MS analysis; assay type: ADME, Microsome
[14] = Toxicity in mouse assessed as reduction in activity at 150 mg/kg; assay type: organism-based; conditions: in vivo
786-0 [15] = experiment: Antiproliferative activity against human 786-0 cells assessed as inhibition of cell growth incubated for 72 hrs by SRB assay; assay type: functional, cell-based; conditions: 786-0, 72 h
[16] = Drug metabolism in po dosed Sprague-Dawley rat urine assessed as M4 metabolite formation measured upto 72 hrs by UPLC-TOF-MS/MS analysis; assay type: ADME, organism-based; conditions: in vivo
[17] = target: Protein kinase C eta type (Homo sapiens, UniProt P24723); experiment: Inhibition of PKCeta (unknown origin)
Protein kinase C eta type, sequence (P24723 whole entry): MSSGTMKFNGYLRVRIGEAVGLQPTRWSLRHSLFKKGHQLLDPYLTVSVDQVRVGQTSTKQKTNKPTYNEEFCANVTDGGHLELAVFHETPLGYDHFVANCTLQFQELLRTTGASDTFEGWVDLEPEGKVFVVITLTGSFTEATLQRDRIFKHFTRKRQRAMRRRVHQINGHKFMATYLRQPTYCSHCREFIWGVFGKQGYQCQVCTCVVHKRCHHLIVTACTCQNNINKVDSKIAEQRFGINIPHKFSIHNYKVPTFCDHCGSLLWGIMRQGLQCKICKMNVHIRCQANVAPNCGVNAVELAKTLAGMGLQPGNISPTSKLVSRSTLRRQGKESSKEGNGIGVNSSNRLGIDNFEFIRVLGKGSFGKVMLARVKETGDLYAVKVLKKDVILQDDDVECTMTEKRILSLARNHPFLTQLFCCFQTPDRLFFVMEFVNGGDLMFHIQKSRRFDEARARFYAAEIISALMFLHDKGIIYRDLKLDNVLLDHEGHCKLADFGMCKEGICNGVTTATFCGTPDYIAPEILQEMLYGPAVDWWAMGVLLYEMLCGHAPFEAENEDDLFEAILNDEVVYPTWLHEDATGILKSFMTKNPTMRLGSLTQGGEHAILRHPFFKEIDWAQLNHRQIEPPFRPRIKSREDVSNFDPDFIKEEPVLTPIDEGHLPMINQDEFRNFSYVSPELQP

786-0 [18] = experiment: Antitumor activity against human 786-0 cells xenografted in dosed BALB/c nude mouse assessed as tumor growth inhibition at 12.5 to 50 mg/kg, ig administered once daily for 22 days; assay type: functional; conditions: dose 12.5-50 mg/kg, time 22 day
[19] = Tmax in Sprague-Dawley rat at 15 mg/kg, ig measured upto 72 hrs by LC-MS/MS analysis; assay type: ADME, organism-based; conditions: in vivo, po
Bel-7402 = experiment: Antiproliferative activity against human Bel-7402 cells assessed as inhibition of cell growth incubated for 72 hrs by SRB method; assay type: functional, cell-based; conditions: Bel-7402, 72 h
[20] = Toxicity in Sprague-Dawley rat assessed as effect on ovaries at 25 to 75 mg/kg administered daily for 4 weeks by histopathological analysis; assay type: organism-based; conditions: in vivo, 672 h, dose 25-75 mg/kg
KHOS/NP [21] = experiment: Antitumor activity against human KHOS cells xenografted in dosed BALB/c nude mouse assessed as tumor growth inhibition at 12.5 to 50 mg/kg, ig administered once daily for 22 days; assay type: functional; conditions: dose 12.5-50 mg/kg, time 22 day
[22] = Toxicity in mouse assessed as prone posture at 150 mg/kg; assay type: organism-based; conditions: in vivo
PC-3 = experiment: Antiproliferative activity against human PC3 cells assessed as inhibition of cell growth incubated for 72 hrs by SRB method; assay type: functional, cell-based; conditions: PC-3, 72 h
[23] = target: Mitogen-activated protein kinase 9 (Homo sapiens, UniProt P45984); experiment: Inhibition of JNK2 (unknown origin)
Mitogen-activated protein kinase 9, sequence (P45984 whole entry): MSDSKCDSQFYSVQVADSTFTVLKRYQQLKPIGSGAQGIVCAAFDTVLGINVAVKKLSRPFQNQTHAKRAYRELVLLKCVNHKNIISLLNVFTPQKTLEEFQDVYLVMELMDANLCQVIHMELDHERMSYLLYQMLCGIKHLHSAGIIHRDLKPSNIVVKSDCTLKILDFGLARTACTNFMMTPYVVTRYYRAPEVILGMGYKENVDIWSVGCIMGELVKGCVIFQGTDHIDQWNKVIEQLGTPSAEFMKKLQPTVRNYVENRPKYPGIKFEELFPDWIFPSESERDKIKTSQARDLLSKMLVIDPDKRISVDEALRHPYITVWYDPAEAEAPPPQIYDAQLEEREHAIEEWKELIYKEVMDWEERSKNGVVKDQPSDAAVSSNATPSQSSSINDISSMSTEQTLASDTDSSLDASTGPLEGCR

[24] = Drug metabolism in po dosed Sprague-Dawley rat urine assessed as M2 metabolite formation measured upto 72 hrs by UPLC-TOF-MS/MS analysis; assay type: ADME, organism-based; conditions: in vivo
[25] = target: ALK tyrosine kinase receptor (Homo sapiens, UniProt Q9UM73); experiment: Inhibition of ALK (unknown origin)
ALK tyrosine kinase receptor, sequence (Q9UM73 whole entry): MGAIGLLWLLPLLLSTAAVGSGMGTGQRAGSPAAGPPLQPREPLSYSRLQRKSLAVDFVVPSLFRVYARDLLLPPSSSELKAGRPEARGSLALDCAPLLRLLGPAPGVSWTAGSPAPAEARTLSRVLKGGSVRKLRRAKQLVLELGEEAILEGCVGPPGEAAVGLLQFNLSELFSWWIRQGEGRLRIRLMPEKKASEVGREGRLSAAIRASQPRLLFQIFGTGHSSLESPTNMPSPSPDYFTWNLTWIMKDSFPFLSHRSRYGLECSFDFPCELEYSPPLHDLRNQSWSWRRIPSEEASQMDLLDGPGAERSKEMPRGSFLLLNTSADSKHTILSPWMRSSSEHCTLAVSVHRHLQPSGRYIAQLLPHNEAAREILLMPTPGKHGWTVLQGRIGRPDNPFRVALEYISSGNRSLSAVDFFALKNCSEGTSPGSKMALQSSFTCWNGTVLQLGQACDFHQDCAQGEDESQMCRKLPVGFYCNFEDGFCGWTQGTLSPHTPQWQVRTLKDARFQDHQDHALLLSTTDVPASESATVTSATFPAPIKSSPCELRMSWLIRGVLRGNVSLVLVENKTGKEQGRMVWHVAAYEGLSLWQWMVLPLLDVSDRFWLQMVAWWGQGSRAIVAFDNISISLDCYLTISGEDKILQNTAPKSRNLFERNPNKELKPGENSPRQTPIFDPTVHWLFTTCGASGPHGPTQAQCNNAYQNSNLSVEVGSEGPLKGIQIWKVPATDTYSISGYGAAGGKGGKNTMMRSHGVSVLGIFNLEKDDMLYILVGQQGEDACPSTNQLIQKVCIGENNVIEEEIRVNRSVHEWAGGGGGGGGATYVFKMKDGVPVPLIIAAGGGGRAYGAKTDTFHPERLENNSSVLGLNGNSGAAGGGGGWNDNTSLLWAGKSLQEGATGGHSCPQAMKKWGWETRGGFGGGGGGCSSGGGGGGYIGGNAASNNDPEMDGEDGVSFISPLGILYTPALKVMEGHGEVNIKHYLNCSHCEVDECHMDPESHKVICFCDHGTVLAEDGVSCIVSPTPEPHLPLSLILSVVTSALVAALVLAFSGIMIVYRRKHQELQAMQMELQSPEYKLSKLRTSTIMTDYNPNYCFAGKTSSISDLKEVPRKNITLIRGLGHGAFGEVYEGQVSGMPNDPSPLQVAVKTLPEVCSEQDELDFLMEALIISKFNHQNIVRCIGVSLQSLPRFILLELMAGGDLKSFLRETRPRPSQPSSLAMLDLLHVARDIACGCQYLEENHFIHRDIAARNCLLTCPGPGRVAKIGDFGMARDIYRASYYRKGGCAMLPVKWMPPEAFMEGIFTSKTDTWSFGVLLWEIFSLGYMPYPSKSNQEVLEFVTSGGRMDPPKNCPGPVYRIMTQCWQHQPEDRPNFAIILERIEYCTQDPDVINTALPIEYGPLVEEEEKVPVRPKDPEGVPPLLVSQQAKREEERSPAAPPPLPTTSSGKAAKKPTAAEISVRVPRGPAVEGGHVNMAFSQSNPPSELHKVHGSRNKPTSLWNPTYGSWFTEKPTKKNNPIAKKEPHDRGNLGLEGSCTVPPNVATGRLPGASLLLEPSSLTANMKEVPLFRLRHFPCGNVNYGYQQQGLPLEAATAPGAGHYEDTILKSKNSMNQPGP

KHOS/NP [26] = experiment: Antiproliferative activity against human KHOS cells assessed as inhibition of cell growth incubated for 72 hrs by SRB method; assay type: functional, cell-based
[27] = Half life in Sprague-Dawley rat at 2 mg/kg, iv measured upto 24 hrs by LC-MS/MS analysis; assay type: ADME, organism-based; conditions: in vivo
[28] = Toxicity in Beagle dog assessed as thymic atrophy at 100 mg/kg; assay type: organism-based, Canis lupus familiaris; conditions: in vivo
[29] = Microsomal stability in rat liver microsomes assessed as intrinsic clearance at 50 uM preincubated for 5 mins with NADPH followed by compound addition and measured upto 60 mins by LC-MS/MS analysis; assay type: ADME, Microsome; conditions: read-out: CLH
Homo sapiens [30] = organism: Homo sapiens; experiment: Inhibition of PKA (unknown origin) at 0.5 uM
OS-RC-2 = experiment: Antiproliferative activity against human OS-RC-2 cells assessed as inhibition of cell growth incubated for 72 hrs by SRB method; assay type: functional, cell-based; conditions: OS-RC-2, 72 h
[31] = Toxicity in Beagle dog assessed as maximum toxicity dose; design: species or system Canis lupus familiaris; conditions: in vivo
Cytochrome P450 3A5 = Cytochrome P450 3A5 (Homo sapiens, UniProt P20815); experiment: Inhibition of CYP3A5 (unknown origin); assay type: ADME
Cytochrome P450 3A5, sequence (P20815 whole entry): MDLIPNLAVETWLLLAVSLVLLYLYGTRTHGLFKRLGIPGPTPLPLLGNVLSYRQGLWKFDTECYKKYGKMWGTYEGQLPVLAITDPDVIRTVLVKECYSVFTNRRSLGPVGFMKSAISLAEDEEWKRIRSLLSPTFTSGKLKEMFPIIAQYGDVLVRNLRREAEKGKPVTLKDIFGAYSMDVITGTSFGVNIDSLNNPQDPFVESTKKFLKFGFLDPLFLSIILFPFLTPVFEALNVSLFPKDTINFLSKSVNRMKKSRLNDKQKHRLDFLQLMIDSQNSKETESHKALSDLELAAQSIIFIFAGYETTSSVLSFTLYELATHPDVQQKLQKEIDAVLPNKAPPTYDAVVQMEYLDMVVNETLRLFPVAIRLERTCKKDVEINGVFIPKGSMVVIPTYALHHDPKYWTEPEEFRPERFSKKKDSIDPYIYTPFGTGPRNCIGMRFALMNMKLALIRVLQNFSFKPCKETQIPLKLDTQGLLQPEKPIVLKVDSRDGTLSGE

[32] = Microsomal stability in monkey liver microsomes assessed as intrinsic clearance at 50 uM preincubated for 5 mins with NADPH followed by compound addition and measured upto 60 mins by LC-MS/MS analysis; assay type: ADME, Macaca mulatta, Microsome; conditions: rhesus monkey, read-out: CLH
Homo sapiens [33] = organism: Homo sapiens; experiment: Inhibition of PKG (unknown origin) at 0.5 uM
[34] = Toxicity in BALB/c nude mouse xenografted with human 786-0 cells assessed as mortality at 12.5 to 50 mg/kg, ig administered once daily for 22 days; assay type: organism-based; conditions: in vivo, po, 528 h, dose 12.5-50 mg/kg, time 22 day
[35] = Drug metabolism in po dosed Sprague-Dawley rat blood assessed as M3 metabolite formation measured upto 6 hrs by UPLC-TOF-MS/MS analysis; assay type: ADME, organism-based; conditions: in vivo
[36] = target: Tyrosine-protein kinase JAK2 (Homo sapiens, UniProt O60674); experiment: Inhibition of JAK2 (unknown origin)
Tyrosine-protein kinase JAK2, sequence (O60674 whole entry): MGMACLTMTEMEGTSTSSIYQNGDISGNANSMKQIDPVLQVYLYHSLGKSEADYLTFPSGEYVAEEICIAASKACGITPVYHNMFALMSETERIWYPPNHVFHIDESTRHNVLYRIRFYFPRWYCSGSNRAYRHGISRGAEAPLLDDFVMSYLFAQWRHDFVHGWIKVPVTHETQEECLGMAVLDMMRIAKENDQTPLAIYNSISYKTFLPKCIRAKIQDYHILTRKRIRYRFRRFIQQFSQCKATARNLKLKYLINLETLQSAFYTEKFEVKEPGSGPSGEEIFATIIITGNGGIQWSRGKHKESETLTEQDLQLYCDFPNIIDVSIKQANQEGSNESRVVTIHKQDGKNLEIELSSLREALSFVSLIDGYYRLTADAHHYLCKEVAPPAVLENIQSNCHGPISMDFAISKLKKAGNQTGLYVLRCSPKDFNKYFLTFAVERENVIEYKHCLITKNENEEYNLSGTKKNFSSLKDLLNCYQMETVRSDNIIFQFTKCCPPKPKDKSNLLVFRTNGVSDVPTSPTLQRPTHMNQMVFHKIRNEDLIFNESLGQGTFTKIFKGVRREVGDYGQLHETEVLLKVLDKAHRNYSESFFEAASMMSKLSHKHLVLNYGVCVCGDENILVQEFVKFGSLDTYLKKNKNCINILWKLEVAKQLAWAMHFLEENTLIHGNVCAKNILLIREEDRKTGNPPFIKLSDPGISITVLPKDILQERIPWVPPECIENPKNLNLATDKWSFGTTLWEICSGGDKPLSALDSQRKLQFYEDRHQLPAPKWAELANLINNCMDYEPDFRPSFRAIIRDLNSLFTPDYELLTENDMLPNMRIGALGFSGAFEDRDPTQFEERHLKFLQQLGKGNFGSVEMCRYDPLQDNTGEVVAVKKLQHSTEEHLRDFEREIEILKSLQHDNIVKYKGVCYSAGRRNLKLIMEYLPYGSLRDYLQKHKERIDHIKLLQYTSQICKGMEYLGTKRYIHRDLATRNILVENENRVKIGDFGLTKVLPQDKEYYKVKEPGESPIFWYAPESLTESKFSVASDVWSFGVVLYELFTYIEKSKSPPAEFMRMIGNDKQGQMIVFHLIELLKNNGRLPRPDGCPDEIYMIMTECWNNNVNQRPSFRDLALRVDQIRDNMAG

[37] = Drug metabolism in po dosed Sprague-Dawley rat feces assessed as M1 metabolite formation measured upto 24 hrs by UPLC-TOF-MS/MS analysis; assay type: ADME, organism-based; conditions: in vivo
[38] = Drug metabolism in po dosed Sprague-Dawley rat blood assessed as M1 metabolite formation measured upto 6 hrs by UPLC-TOF-MS/MS analysis; assay type: ADME, organism-based; conditions: in vivo
HaCaT = experiment: Induction of apoptosis in human HaCaT cells assessed as cleaved caspase 3 level at 2.25 to 36 uM after 24 hrs by Western blot analysis; assay type: cell-based; conditions: dose 2.25-36 µM
[39] = Half life in Beagle dog at 20 mg/kg, ig measured upto 96 hrs by LC-MS/MS analysis; assay type: ADME, organism-based, Canis lupus familiaris; conditions: in vivo, po

Cl.Cn1nccc1-c1ccc(C(=O)N[C@@H]2CNCC[C@H]2c2ccc(F)c(F)c2)c(F)c1
microsomal CLint at 50 µM [1]: 4.1 µL/min/mg
Activity [2]: Non-Toxic
pIC50 [3]: 4.79
pIC50 (786-0 [4]): 5.07
Tmax [5]: 8.67 h
Drug metabolism [6]: Metabolite_Detected
Activity [7]: Non-Toxic
Activity (KHOS/NP [8]): Active
pIC50 (KHOS/NP [9]): 4.83
pIC50 [10]: < 5.00
Activity [11]: Non-Toxic
Activity [12]: Toxic
half-life at 50 µM [13]: 6.73 h
Activity [14]: Toxic
pIC50 (786-0 [15]): 5.60
Drug metabolism [16]: Metabolite_Detected
pIC50 [17]: < 5.70
TGI (786-0 [18]): 70%
Tmax [19]: 1.67 h
pIC50 (Bel-7402): 4.57
Activity [20]: Non-Toxic
TGI (KHOS/NP [21]): 55.7%
Activity [22]: Toxic
pIC50 (PC-3): 5.06
pIC50 [23]: < 5.00
Drug metabolism [24]: Metabolite_Detected
pIC50 [25]: < 5.00
pIC50 (KHOS/NP [26]): 5.13
half-life [27]: 6.24 h
Activity [28]: Toxic
microsomal CLint at 50 µM [29]: 20 µL/min/mg
inhibition (Homo sapiens [30]): Active
pIC50 (OS-RC-2): 5.00
MTD [31]: 100 mg/kg
pIC50 (Cytochrome P450 3A5): < 4.00
microsomal CLint at 50 µM [32]: 13.6 µL/min/mg
inhibition (Homo sapiens [33]): Active
Activity [34]: Non-Toxic
Drug metabolism [35]: Metabolite_Detected
pIC50 [36]: < 5.00
Drug metabolism [37]: Metabolite_Detected
Drug metabolism [38]: Metabolite_Detected
Activity (HaCaT): Non-Toxic
half-life [39]: 16.7 h
